Measured values published in patent US12071411B2, “Inhibitors of HIF-2α and methods of use thereof” (ARCUS BIOSCIENCES, INC., priority 2021, dated 2024).

Legend:
HIF-2α [1] = target: T1, HIF-2α (Homo sapiens, UniProt Q99814); assay: HIF-2α Luciferase Reporter Assay (serum free) in HIF-Luc-786-0 cells; format: cell-based; conditions: Opti-MEM, 786-0 reporter cells, 20 hours incubation
Description: (§1) Generation of HIF-2α Luciferase 786-0 Cell Line:
(§2) Stable cell lines were generated by transducing 786-0 cells (ATCC, CRL-1932) with Cignal Lenti HIF Luc Reporter lentivirus (CLS-007L, Qiagen) according to the manufacturer's guidelines. In brief, 0.3×10^6 786-0 cells were transduced with lentivirus at a multiplicity of infection (MOI) of 25 for 24 hours. After transduction, cells were replenished with fresh RPMI 1640 Medium (Cat. No. 11875085, Thermo Fisher) supplemented with 10% FBS (Cat. No. A3160502, Gibco), 2 mM GlutaMAX™ (Cat. No. 35050-061, Invitrogen) and 100 units of penicillin and 100 μg of streptomycin/mL (Cat. No 15070063, Thermo Fisher) for another 24 hours. Antibiotic selection was performed in cell media containing 4 μg/mL of puromycin. After 7 days of antibiotic selection, stable pools of surviving cells were expanded and used in a luciferase reporter assay.
HIF-2α Luciferase Reporter Assay (Serum Free):
On day one, 20 uL of HIF-Luc-786-0 cells in Opti-MEM™ (Cat. No. 31985088, Thermo Fisher) were seeded into each well of a 384 well white opaque plate (Corning 3570) and incubated at 37° C. and 5% CO2. Twenty microliters of 2× test compounds in Opti-MEM™ were added to cells after 4 hours of incubation. Final assay conditions comprised 20,000 cells per well in 1% DMSO with test compound concentrations ranging from 50 uM to 0 uM. After 20 hours incubation at 37° C. and 5% CO2, luciferase activity was determined using ONE-Glo™ Luciferase Assay Reagent (E6110, Promega) following the manufacture's recommended procedure. Briefly, 40 uL of ONE-Glo™ luciferase reagents were added to each well and luciferase signals were measured using an Envision 2102 Multilabel Reader. Percentage maximum activity in each test well was calculated based on DMSO (maximum activity) and no cell control wells (baseline activity). The IC50 values of the test compounds were determined from compound dose response curves fitted using a standard four parameter fit equation.

HIF-2α [2] = target: T1, HIF-2α; assay: HIF-2α Luciferase Reporter Assay (serum), HRE-luciferase 786-0 cells in 100% human serum; format: cell-based; conditions: for IC50: 100% human serum, 786-0 reporter cells, overnight incubation, read-out: Serum Potency; for Serum Shift (approximate): ratio of IC50 in 100% serum to IC50 in serum free conditions
Description: as §1, §2
HIF-2α Luciferase Reporter Assay (Serum):
An HRE-luciferase stable reporter 786-0 cell line was maintained in active culture using RPMI 1640 (GIBCO) media supplemented with 1% penicillin-streptomycin, 1% GlutaMAX™, 10% FBS-One Shot (GIBCO) and 4 ug/ml of puromycin (Invitrogen). On the day of the assay, cells were harvested using StemPro™ Accutase™ cell dissociation reagent (GIBCO) and resuspended at 1.5 million cells per milliliter in Opti-MEM™ (GIBCO). 20 ul/well of the resuspended cells were dispensed into a 384 white tissue culture-treated microplate (Corning) and allowed to incubate at 37° C., 5% CO2 for 3 hours. Compounds were prepared by dispensing 0.8 ul of compound in 100% DMSO into a Greiner plate containing 40 ul/well of 100% human serum (Bioreclamation IVT). After 3 hours, media was removed via centrifugation at 500 RPM for 30 seconds and 30 ul/well of compound diluted in human serum was added. The plate was incubated overnight at 37° C., 5% CO2. The following day, ONE-Glo™ was prepared per vendors instructions. The cell plate was removed from the incubator and the human serum was removed from the plate using centrifugation at 500 RPM for 30 seconds. Following the removal of human serum, 40 ul/well of room temperature Opti-MEM™ was added to the plate and allowed to equilibrate to room temperature for 2 hours. 40 ul/well of ONE-Glo™ reagent was added and allowed to incubate for 10 minutes before reading the luminescence signal on the Envision (PerkinElmer). Data was analyzed using 4-parameter logistic equation to generate IC50.

T1 sequence (Q99814 whole entry): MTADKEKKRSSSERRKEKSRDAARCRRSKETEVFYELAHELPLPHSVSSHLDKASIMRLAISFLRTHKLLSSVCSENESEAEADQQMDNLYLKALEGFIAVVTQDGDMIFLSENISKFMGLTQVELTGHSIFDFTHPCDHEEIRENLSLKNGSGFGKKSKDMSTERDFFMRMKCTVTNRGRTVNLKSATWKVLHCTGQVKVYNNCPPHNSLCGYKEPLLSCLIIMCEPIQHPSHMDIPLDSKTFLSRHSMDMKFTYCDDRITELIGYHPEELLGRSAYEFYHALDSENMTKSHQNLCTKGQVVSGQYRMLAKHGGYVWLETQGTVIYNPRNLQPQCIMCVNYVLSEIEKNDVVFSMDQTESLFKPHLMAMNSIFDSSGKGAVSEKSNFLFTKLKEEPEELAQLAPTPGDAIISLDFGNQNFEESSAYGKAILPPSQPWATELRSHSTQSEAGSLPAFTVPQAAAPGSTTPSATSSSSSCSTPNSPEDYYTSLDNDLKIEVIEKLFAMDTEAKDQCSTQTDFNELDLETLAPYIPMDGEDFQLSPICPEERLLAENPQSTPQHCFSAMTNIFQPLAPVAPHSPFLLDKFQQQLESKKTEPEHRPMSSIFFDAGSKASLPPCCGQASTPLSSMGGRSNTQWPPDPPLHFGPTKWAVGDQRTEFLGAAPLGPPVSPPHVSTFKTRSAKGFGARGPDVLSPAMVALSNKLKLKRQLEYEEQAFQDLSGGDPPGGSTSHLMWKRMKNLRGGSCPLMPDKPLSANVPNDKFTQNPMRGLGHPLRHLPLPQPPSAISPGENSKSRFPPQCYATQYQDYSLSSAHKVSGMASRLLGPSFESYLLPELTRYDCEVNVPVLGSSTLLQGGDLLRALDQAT

IC50 (HIF-2α [1]) [nM] | IC50 (HIF-2α [2]) [nM] | Serum Shift (approximate) (HIF-2α [2]) | Compound
100 to 1000 | 100 to 1000 | 3 | O[C@H]1c2c(C(F)(F)F)nn(CCCC(F)(F)F)c2CC[C@H]1F [Example 51, (4S,5R)-5-fluoro-1-(4,4,4-trifluorobutyl)-3-(trifluoromethyl)-4,5,6,7-tetrahydroindazol-4-ol]
< 100 | > 1000 | 6 | O[C@H]1c2c(C(F)(F)F)nn(CCCC(F)(F)F)c2[C@H](F)[C@H]1F [Example 139, (4S,5S,6S)-5,6-difluoro-1-(4,4,4-trifluorobutyl)-3-(trifluoromethyl)-5,6-dihydro-4H-cyclopenta[c]pyrazol-4-ol]
< 100 | > 1000 | 13 | O[C@H]1c2c(C(F)(F)F)nn(CCc3cccc(F)c3)c2CC1(F)F [Example 79, (4S)-5,5-difluoro-1-[2-(3-fluorophenyl)ethyl]-3-(trifluoromethyl)-1H,4H,5H,6H-cyclopenta[c]pyrazol-4-ol]
< 100 | > 1000 | 9 | CO[C@H]1C[C@H](n2nc(C(F)(F)F)c3c2CC(F)(F)[C@H]3O)CCC1(F)F (racemic) [Example 111, (4S)-1-[(1R,3S)-4,4-difluoro-3-methoxycyclohexyl]-5,5-difluoro-3-(trifluoromethyl)-1H,4H,5H,6H-cyclopenta[c]pyrazol-4-ol and (4S)-1-[(1S,3R)-4,4-difluoro-3-methoxycyclohexyl]-5,5-difluoro-3-(trifluoromethyl)-1H,4H,5H,6H-cyclopenta[c]pyrazol-4-ol]
< 100 | > 1000 | 17 | O[C@H]1c2c(C(F)(F)F)nn([C@H]3CCO[C@@H](C(F)(F)F)C3)c2CC1(F)F (single isomer, unassigned) [94/95 DIAST-1]
< 100 | 100 to 1000 | 8 | O[C@H]1c2c(C(F)(F)F)nn(CCCOC(F)(F)F)c2CCC1(F)F [Example 30, (4S)-5,5-difluoro-1-[3-(trifluoromethoxy)propyl]-3-(trifluoromethyl)-6,7-dihydro-4H-indazol-4-ol]
< 100 | 100 to 1000 | 3 | O[C@H]1c2c(C(F)(F)F)nn(C3CC[C@H](F)[C@H](F)C3)c2CC1(F)F (single isomer, unassigned) [72/73 DIAST-2]
< 100 | > 1000 | >62 | O[C@H]1c2c(C(F)(F)F)nn(-c3ccc(C(F)(F)F)cc3)c2CC1(F)F [Example 117, (4S)-5,5-difluoro-3-(trifluoromethyl)-1-[4-(trifluoromethyl)phenyl]-4,6-dihydrocyclopenta[c]pyrazol-4-ol]
100 to 1000 | > 1000 | 12 | O[C@H]1c2c(C(F)(F)F)nn(CCCC(F)(F)F)c2[C@@H](F)C1(F)F (single isomer, unassigned) [Example 123]
100 to 1000 | > 1000 | 17 | O[C@H]1c2c(C(F)(F)F)nn(CCc3ccsc3)c2CC1(F)F [Example 76, (4S)-5,5-difluoro-1-(2-thiophen-3-ylethyl)-3-(trifluoromethyl)-4,6-dihydrocyclopenta[c]pyrazol-4-ol]
< 100 | > 1000 | 5 | O[C@H]1c2c(C(F)(F)F)nn(CCc3cnoc3)c2CC1(F)F [Example 75, (4S)-5,5-difluoro-1-[2-(1,2-oxazol-4-yl)ethyl]-3-(trifluoromethyl)-4,6-dihydrocyclopenta[c]pyrazol-4-ol]
< 100 | > 1000 | 14 | O[C@H]1c2c(C(F)(F)F)nn(CC3CCC(F)(F)CC3)c2CC1(F)F [Example 113, (4S)-1-[(4,4-difluorocyclohexyl)methyl]-5,5-difluoro-3-(trifluoromethyl)-1H, 4H, 5H, 6H-cyclopenta[c]pyrazol-4-ol]
< 100 | < 100 | 6 | CC(CCn1nc(C(F)(F)F)c2c1CCC(F)(F)[C@H]2O)OC(F)F (stereo partly drawn) [Example 15, (4S)-1-[3-(difluoromethoxy)butyl]-5,5-difluoro-3-(trifluoromethyl)-6,7-dihydro-4H-indazol-4-ol]
< 100 | < 100 | 3 | O[C@H]1c2c(C(F)(F)F)nn([C@H]3CC[C@H](F)[C@H](F)C3)c2[C@@H](F)C1(F)F [Example 157, (4S,6R)-1-[(1S,3R,4S)-3,4-difluorocyclohexyl]-5,5,6-trifluoro-3-(trifluoromethyl)-4,6-dihydrocyclopenta[c]pyrazol-4-ol]
< 100 | 100 to 1000 | 4 | O=S(=O)(CCn1nc(C(F)(F)F)c2c1CCC(F)(F)[C@H]2O)C(F)(F)F [Example 8, (4S)-5,5-difluoro-3-(trifluoromethyl)-1-[2-(trifluoromethylsulfonyl)ethyl]-6,7-dihydro-4H-indazol-4-ol]
< 100 | > 1000 | 9 | O[C@H]1c2c(C(F)(F)F)nn([C@@H]3C[C@@H](F)[C@@H](F)[C@@H](F)C3)c2[C@H](F)[C@H]1F [Example 138, (4S,5S,6S)-5,6-difluoro-1-[(3R,5S)-3,4,5-trifluorocyclohexyl]-3-(trifluoromethyl)-5,6-dihydro-4H-cyclopenta[c]pyrazol-4-ol]
100 to 1000 | 100 to 1000 | 2 | O[C@H]1c2c(C(F)(F)F)nn(CCCOC(F)(F)F)c2C[C@H]1F [Example 62, (4S,5R)-5-fluoro-1-[3-(trifluoromethoxy)propyl]-3-(trifluoromethyl)-5,6-dihydro-4H-cyclopenta[c]pyrazol-4-ol]
< 100 | > 1000 | 12 | O[C@H]1c2c(C(F)(F)F)nn([C@H]3C[C@@]4(CC4(F)F)C3)c2CC1(F)F [Example 64, (4S)-5,5-difluoro-1-[(3r,5r)-1,1-difluorospiro[2.3]hexan-5-yl]-3-(trifluoromethyl)-4,6-dihydrocyclopenta[c]pyrazol-4-ol]
100 to 1000 | > 1000 | 7 | O[C@H]1c2c(C(F)(F)F)nn(CC3CC3C(F)(F)F)c2CCC1(F)F (stereo partly drawn) [Example 59, (4S)-5,5-difluoro-3-(trifluoromethyl)-1-[[2-(trifluoromethyl)cyclopropyl]methyl]-6,7-dihydro-4H-indazol-4-ol]
< 100 | 100 to 1000 | 6 | O[C@H]1c2c(C(F)(F)F)nn(C3CC4(C3)CC(F)(F)C4)c2CC1(F)F [Example 66, (4S)-1-{6,6-difluorospiro[3.3]heptan-2-yl}-5,5-difluoro-3-(trifluoromethyl)-4,6-dihydrocyclopenta[c]pyrazol-4-ol]
< 100 | 100 to 1000 | 8 | O[C@H]1c2c(C(F)(F)F)nn([C@@H]3C[C@@H](F)[C@@H](F)[C@@H](F)C3)c2[C@@H](F)C1(F)F (single isomer, unassigned) [146/147 DIAST-2]

Compound | IC50 (HIF-2α [1]) [nM] | IC50 (HIF-2α [2]) [nM] | Serum Shift (approximate) (HIF-2α [2])
O[C@H]1c2c(C(F)(F)F)nn(-c3ccc(Cl)cc3)c2CC1(F)F [Example 116, (4S)-1-(4-chlorophenyl)-5,5-difluoro-3-(trifluoromethyl)-4,6-dihydrocyclopenta[c]pyrazol-4-ol] | < 100 | > 1000 | 73
